Measured values: patent publication US20260365682A1, “MODULATORS OF TNF-ALPHA ACTIVITY” (Forward Therapeutics, Inc., priority 2022, published 2026)

Each compound was assayed against T1, TNF-α (Homo sapiens, UniProt P01375) (assay: TNF-α Induced HEK Blue Cellular Assay (secreted alkaline phosphatase expression, QUANTI-Blue)). Details: HEK Blue TNFα reporter cells; TNF-α 100 μg/ml; 24 hrs at 37° C.; inhibition of secreted alkaline phosphatase; read-out: IC50 value.
T1 construct: purchased R&D 210-TA-020/CF
Assay type: cell-based
Summary of the method: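 Compound was serially diluted from […] to 0.5 nM final, then incubated with 10,000 HEK Blue TNFα reporter cells per well and […] TNF-α for 24 h at 37° C. SEAP output was read by QUANTI-Blue absorbance at 620 nm. Inhibition was background-corrected against DMSO controls with and without stimulation, and IC50 was fitted with a 4-parameter logistic equation.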

T1 sequence (P01375 77-233 limits assumed): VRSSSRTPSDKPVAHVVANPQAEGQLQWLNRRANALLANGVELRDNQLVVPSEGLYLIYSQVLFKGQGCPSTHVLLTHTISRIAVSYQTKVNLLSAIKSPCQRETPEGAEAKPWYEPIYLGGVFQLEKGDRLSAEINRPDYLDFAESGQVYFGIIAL

SMILES	IC50 [µM]
[2H]C([2H])([2H])N1C(=O)c2cccc(OC(F)F)c2[C@H]2C[C@@H]1c1nc3ccc(C#CC4CC4(F)F)cc3n12 (stereo partly drawn) [Example 196, (7R,14R)-11-((2,2-difluorocyclopropyl)ethynyl)-1-(difluoromethoxy)-6-(methyl-d3)-6,7-dihydro-7,14-methanobenzo[f]benzo[4,5]imidazo[1,2-a][1,4]diazocin-5(14H)-one]	0.1 to 1
[2H]C([2H])([2H])N1C(=O)c2cccc(OC(F)F)c2[C@H]2C[C@@H]1c1nc3ccc(C#CC4CN(CC(C)(C)O)C4)cc3n12 [Example 197, (7R,14R)-1-(difluoromethoxy)-11-((1-(2-hydroxy-2-methylpropyl)azetidin-3-yl)ethynyl)-6-(methyl-d3)-6,7-dihydro-7,14-methanobenzo[f]benzo[4,5]imidazo[1,2-a][1,4]diazocin-5(14H)-one]	10 to 30
[2H]C([2H])([2H])N1C(=O)c2cccc(OC(F)F)c2[C@H]2C[C@@H]1c1nc3ccc(C#CC4CCN(C(=O)C5CC5)C4)cc3n12 (stereo partly drawn) [Example 201, (7R,14R)-11-((1-(cyclopropanecarbonyl)pyrrolidin-3-yl)ethynyl)-1-(difluoromethoxy)-6-(methyl-d3)-6,7-dihydro-7,14-methanobenzo[f]benzo[4,5]imidazo[1,2-a][1,4]diazocin-5(14H)-one]	10 to 30
[2H]C([2H])([2H])N1C(=O)c2cccc(OC(F)F)c2[C@H]2C[C@@H]1c1nc3ccc(C#CC4CCN(C(=O)C(C)(C)O)C4)cc3n12 (stereo partly drawn) [Example 202, (7R,14R)-1-(difluoromethoxy)-11-((1-(2-hydroxy-2-methylpropanoyl)pyrrolidin-3-yl)ethynyl)-6-(methyl-d3)-6,7-dihydro-7,14-methanobenzo[f]benzo[4,5]imidazo[1,2-a][1,4]diazocin-5(14H)-one]	0.1 to 1
[2H]C([2H])([2H])N1C(=O)c2cccc(OC(F)F)c2[C@H]2C[C@@H]1c1nc3ccc(C#CC4(C)CN(C(=O)C5CC5(F)F)C4)cc3n12 (stereo partly drawn) [Example 210, (7R,14R)-11-((1-(2,2-difluorocyclopropane-1-carbonyl)-3-methylazetidin-3-yl)ethynyl)-1-(difluoromethoxy)-6-(methyl-d3)-6,7-dihydro-7,14-methanobenzo[f]benzo[4,5]imidazo[1,2-a][1,4]diazocin-5(14H)-one]	0.1 to 1
[2H]C([2H])([2H])N1C(=O)c2cccc(OC(F)F)c2[C@H]2C[C@@H]1c1nc3ccc(C#CC4(C)CCOC4)cc3n12 (stereo partly drawn) [Example 212, (7R,14R)-1-(difluoromethoxy)-6-(methyl-d3)-11-((3-methyltetrahydrofuran-3-yl)ethynyl)-6,7-dihydro-7,14-methanobenzo[f]benzo[4,5]imidazo[1,2-a][1,4]diazocin-5(14H)-one]	0.1 to 1
[2H]C([2H])([2H])N1C(=O)c2cccc(OC(F)F)c2[C@H]2C[C@@H]1c1nc3ccc(C#CCCNC(=O)C(C)(C)O)cc3n12 [Example 213, N-(4-((7R,14R)-1-(difluoromethoxy)-6-(methyl-d3)-5-oxo-5,6,7,14-tetrahydro-7,14-methanobenzo[f]benzo[4,5]imidazo[1,2-a][1,4]diazocin-11-yl)but-3-yn-1-yl)-2-hydroxy-2-methylpropanamide]	10 to 30
[2H]C([2H])([2H])N1C(=O)c2cccc(OC(F)F)c2[C@H]2C[C@@H]1c1nc3ccc(C#CCCNC(=O)C4CC4)cc3n12 [Example 214, N-(4-((7R,14R)-1-(difluoromethoxy)-6-(methyl-d3)-5-oxo-5,6,7,14-tetrahydro-7,14-methanobenzo[f]benzo[4,5]imidazo[1,2-a][1,4]diazocin-11-yl)but-3-yn-1-yl)cyclopropanecarboxamide]	0.1 to 1
[2H]C([2H])([2H])N1C(=O)c2cccc(OC(F)F)c2[C@H]2C[C@@H]1c1nc3ccc(C#CCCNC(=O)C(C)(C)C)cc3n12 [Example 215, N-(4-((7R,14R)-1-(difluoromethoxy)-6-(methyl-d3)-5-oxo-5,6,7,14-tetrahydro-7,14-methanobenzo[f]benzo[4,5]imidazo[1,2-a][1,4]diazocin-11-yl)but-3-yn-1-yl)pivalamide]	10 to 30
[2H]C([2H])([2H])N1C(=O)c2cccc(OC(F)F)c2[C@H]2C[C@@H]1c1nc3ccc(C#CC4CCCN(C5CC5)C4)cc3n12 (stereo partly drawn) [Example 218, (7R,14R)-11-((1-cyclopropylpiperidin-3-yl)ethynyl)-1-(difluoromethoxy)-6-(methyl-d3)-6,7-dihydro-7,14-methanobenzo[f]benzo[4,5]imidazo[1,2-a][1,4]diazocin-5(14H)-one]	10 to 30
[2H]C([2H])([2H])N1C(=O)c2cccc(OC(F)F)c2[C@H]2C[C@@H]1c1nc3ccc(C#CCCN4CC[C@H](F)C4)cc3n12 [Example 220, (7R,14R)-1-(difluoromethoxy)-11-(4-((S)-3-fluoropyrrolidin-1-yl)but-1-yn-1-yl)-6-(methyl-d3)-6,7-dihydro-7,14-methanobenzo[f]benzo[4,5]imidazo[1,2-a][1,4]diazocin-5(14H)-one]	< 0.1
[2H]C([2H])([2H])N1C(=O)c2cccc(OC(F)F)c2[C@H]2C[C@@H]1c1nc3ccc(C#CC4CN(C5CC5)C4)cc3n12 [Example 223, (7R,14R)-11-((1-cyclopropylazetidin-3-yl)ethynyl)-1-(difluoromethoxy)-6-(methyl-d3)-6,7-dihydro-7,14-methanobenzo[f]benzo[4,5]imidazo[1,2-a][1,4]diazocin-5(14H)-one]	0.1 to 1
[2H]C([2H])([2H])N1C(=O)c2cccc(OC(F)F)c2[C@H]2C[C@@H]1c1nc3ccc(C#CC4CN(C5COC5)C4)cc3n12 [Example 224, (7R,14R)-1-(difluoromethoxy)-6-(methyl-d3)-11-((1-(oxetan-3-yl)azetidin-3-yl)ethynyl)-6,7-dihydro-7,14-methanobenzo[f]benzo[4,5]imidazo[1,2-a][1,4]diazocin-5(14H)-one]	< 0.1

Next, values leading:

IC50 [µM]	SMILES
< 0.1	[2H]C([2H])([2H])N1C(=O)c2cccc(OC(F)F)c2[C@H]2C[C@@H]1c1nc3ccc(C#CC4CN(C(=O)C5(O)CC5)C4)cc3n12 [Example 195, (7R,14R)-1-(difluoromethoxy)-11-((1-(1-hydroxycyclopropane-1-carbonyl)azetidin-3-yl)ethynyl)-6-(methyl-d3)-6,7-dihydro-7,14-methanobenzo[f]benzo[4,5]imidazo[1,2-a][1,4]diazocin-5(14H)-one]
< 0.1	[2H]C([2H])([2H])N1C(=O)c2cccc(OC(F)F)c2[C@H]2C[C@@H]1c1nc3ccc(C#CC4CCN(C(=O)C5(O)CC5)C4)cc3n12 (stereo partly drawn) [Example 203, (7R,14R)-1-(difluoromethoxy)-11-((1-(1-hydroxycyclopropane-1-carbonyl)pyrrolidin-3-yl)ethynyl)-6-(methyl-d3)-6,7-dihydro-7,14-methanobenzo[f]benzo[4,5]imidazo[1,2-a][1,4]diazocin-5(14H)-one]
< 0.1	[2H]C([2H])([2H])N1C(=O)c2cccc(OC(F)F)c2[C@H]2C[C@@H]1c1nc3ccc(C#CC4CCN(C(=O)C(C)(C)C)C4)cc3n12 (stereo partly drawn) [Example 204, (7R,14R)-1-(difluoromethoxy)-6-(methyl-d3)-11-((1-pivaloylpyrrolidin-3-yl)ethynyl)-6,7-dihydro-7,14-methanobenzo[f]benzo[4,5]imidazo[1,2-a][1,4]diazocin-5(14H)-one]
< 0.1	[2H]C([2H])([2H])N1C(=O)c2cccc(OC(F)F)c2[C@H]2C[C@@H]1c1nc3ccc(C#CC4(C)CN(C(=O)C5(O)CC5)C4)cc3n12 [Example 205, (7R,14R)-1-(difluoromethoxy)-11-((1-(1-hydroxycyclopropane-1-carbonyl)-3-methylazetidin-3-yl)ethynyl)-6-(methyl-d3)-6,7-dihydro-7,14-methanobenzo[f]benzo[4,5]imidazo[1,2-a][1,4]diazocin-5(14H)-one]
< 0.1	[2H]C([2H])([2H])N1C(=O)c2cccc(OC(F)F)c2[C@H]2C[C@@H]1c1nc3ccc(C#CC4(C)CN(CC)C4)cc3n12 [Example 206, (7R,14R)-1-(difluoromethoxy)-11-((1-ethyl-3-methylazetidin-3-yl)ethynyl)-6-(methyl-d3)-6,7-dihydro-7,14-methanobenzo[f]benzo[4,5]imidazo[1,2-a][1,4]diazocin-5(14H)-one]
< 0.1	[2H]C([2H])([2H])N1C(=O)c2cccc(OC(F)F)c2[C@H]2C[C@@H]1c1nc3ccc(C#CCCC(C)O)cc3n12 (stereo partly drawn) [Example 207, (7R,14R)-1-(difluoromethoxy)-11-(5-hydroxyhex-1-yn-1-yl)-6-(methyl-d3)-6,7-dihydro-7,14-methanobenzo[f]benzo[4,5]imidazo[1,2-a][1,4]diazocin-5(14H)-one]
< 0.1	[2H]C([2H])([2H])N1C(=O)c2cccc(OC(F)F)c2[C@H]2C[C@@H]1c1nc3ccc(C#CC4(C)CN(C5CC5)C4)cc3n12 [Example 211, (7R,14R)-11-((1-cyclopropyl-3-methylazetidin-3-yl)ethynyl)-1-(difluoromethoxy)-6-(methyl-d3)-6,7-dihydro-7,14-methanobenzo[f]benzo[4,5]imidazo[1,2-a][1,4]diazocin-5(14H)-one]
< 0.1	[2H]C([2H])([2H])N1C(=O)c2cccc(OC(F)F)c2[C@H]2C[C@@H]1c1nc3ccc(C#CC(O)CC(F)(F)F)cc3n12 (stereo partly drawn) [Example 219, (7R,14R)-1-(difluoromethoxy)-6-(methyl-d3)-11-(5,5,5-trifluoro-3-hydroxypent-1-yn-1-yl)-6,7-dihydro-7,14-methanobenzo[f]benzo[4,5]imidazo[1,2-a][1,4]diazocin-5(14H)-one]

Same assay, conditions: IC50 value, HEK Blue TNFα reporter cells; TNF-α 100 μg/ml; 24 hrs at 37° C.; inhibition of secreted alkaline phosphatase

IC50 [µM]	SMILES
10 to 30	[2H]C([2H])([2H])N1C(=O)c2cccc(OC(F)F)c2[C@H]2C[C@@H]1c1nc3ccc(C#CC4CN(CC(F)F)C4)cc3n12 [Example 198, (7R,14R)-11-((1-(2,2-difluoroethyl)azetidin-3-yl)ethynyl)-1-(difluoromethoxy)-6-(methyl-d3)-6,7-dihydro-7,14-methanobenzo[f]benzo[4,5]imidazo[1,2-a][1,4]diazocin-5(14H)-one]
